# Reference: paper PMC5440646, “T Cell Costimulation by CD6 Is Dependent on Bivalent Binding of a GADS/SLP-76 Complex” (Molecular and Cellular Biology, 2017)
# Where two headings read alike, the source gives them in different places. Where a SMILES comes first, the peptide text is derived from it. Where no end group is shown, it is not given here. [ ]: non-standard residue; d: D form. The star is where a group is joined. Biotin = O=C1N[C@H]2[C@H](CS[C@H]2CCCCC(=O)*)N1; pY = N[C@@H](Cc1ccc(OP(=O)(O)O)cc1)C(=O)O
# Tests used:
# GADS SH2 = molecular target: T1, GADS SH2 (Homo sapiens, UniProt O75791); assay: SPR equilibrium binding of recombinant GADS SH2 domain to immobilized phosphopeptides; settings: 37°C
# T1 construct: Recombinant His-tagged SH2 domains of GADS, GRB2, and TSAd in the popinF vector; His tag; made in house; host or cells: Escherichia coli Rosetta(DE3)/pLysS
# T1 sequence (O75791 58-149 limits assumed): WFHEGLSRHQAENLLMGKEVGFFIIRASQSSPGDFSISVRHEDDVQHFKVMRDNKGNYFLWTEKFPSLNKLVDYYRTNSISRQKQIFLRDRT
# Description: (§1) We measured the direct binding of purified monomeric SH2 domains to the phosphorylated CD6 Y629 peptide at physiological temperature using surface plasmon resonance (SPR) (Fig. 1). The sensorgram traces for all three proteins binding to phosphorylated CD6 Y629 are consistent with monomeric binding of all three proteins (Fig. 1, right). Equilibrium binding data were plotted to determine dissociation constants (KDs) (Fig. 1, left). GADS and GRB2 bound with similar KDs to phosphorylated Y629, at 1 to 3 μM and 2 to 4 μM, respectively (Fig. 1A and B and Table 2). As an indication that the recombinant proteins were active, the SH2 domains of GADS and GRB2 bound to a phosphorylated CD28-derived peptide containing the YXN motif with an affinity (KD = 2 to 3 μM) similar to that determined by previous measurements (Fig. 1 and Table 2) ([14]).
# (§2) Recombinant His-tagged SH2 domains of GADS, GRB2, and TSAd in the popinF vector (provided by Louis Bird, Oxford Protein Production Facility, Harwell, Oxfordshire, UK) and SLP-76 ([1]) were expressed in Escherichia coli Rosetta(DE3)/pLysS competent cells (Novagen) and purified by nickel affinity chromatography and size exclusion chromatography. Peptides for CD6 pY662 (biotin-[…]pYDDISAA), CD6 Y629 (biotin-[…]), CD6 pY629 (biotin-SSGEWpYQNFQP), and CD28 pYMNM (biotin-LLHSDpYMNMTP) were immobilized at ∼25 response units on streptavidin-coated CM5 chips in a BIAcore 3000 machine (Peptide Protein Research Ltd., Hampshire, UK) ([1], [14]). Long CD6 peptides (biotin-[…]pYDDISAA) phosphorylated at Y629 (pY629), Y662 (pY662), or both (pY629 pY662) were immobilized at ∼50 response units. Serially diluted proteins were injected over the chip at 10 μl/min at 37°C. Background signals of proteins over a streptavidin-coated flow cell were subtracted, equilibrium binding data were plotted, and KDs for 1:1 Langmuir binding were determined.
# SLP-76 SH2 = molecular target: T2, SLP-76 SH2 (Homo sapiens, UniProt Q13094); assay: SPR equilibrium binding of recombinant SLP-76 SH2 domain to immobilized long CD6 peptides; settings: 37°C; for Kd: equilibrium binding of soluble recombinant SH2 domain to immobilized long CD6 peptides (~50 RU), range, n = 3
# T2 construct: 2-fold serial dilutions of GADS (10 μM) (A) and SLP-76 (20 μM) (B) SH2 domains over the long CD6 peptides; His tag; made in house; host or cells: Escherichia coli Rosetta(DE3)/pLysS
# T2 sequence (Q13094 422-530 limits assumed): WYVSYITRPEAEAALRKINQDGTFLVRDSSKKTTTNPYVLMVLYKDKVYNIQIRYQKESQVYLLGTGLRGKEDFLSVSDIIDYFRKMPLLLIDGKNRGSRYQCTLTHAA
# Description: SPR analysis with long peptides containing both Y629 and Y662 phosphorylated at either or both tyrosine residues confirmed the specificity of the SH2 domains of GADS and SLP-76 for the CD6 Y629 and Y662 motifs, respectively (Fig. 3 and Table 3). […] Coprecipitation of GADS with CD6 was not observed in Jurkat (J14) cells, which lack SLP-76 (data not shown). GADS and SLP-76 interact with each other independently of their SH2 domains. A GADS SH3 domain binds to a proline-rich region of SLP-76 ([15]). This configuration means that both SH2 domains are available for bivalent binding to two phosphorylated tyrosine residues in close proximity. CD6 Y629 is the closest tyrosine residue to CD6 Y662 in the linear amino acid sequence of the cytoplasmic region.
# as §2
# GRB2 SH2 = molecular target: T3, GRB2 SH2 (Homo sapiens, UniProt P62993); assay: SPR equilibrium binding of recombinant GRB2 SH2 domain to immobilized phosphopeptides; settings: 37°C
# T3 construct: Recombinant His-tagged SH2 domains of GADS, GRB2, and TSAd in the popinF vector; His tag; made in house; host or cells: Escherichia coli Rosetta(DE3)/pLysS
# T3 sequence (P62993 60-152 limits assumed): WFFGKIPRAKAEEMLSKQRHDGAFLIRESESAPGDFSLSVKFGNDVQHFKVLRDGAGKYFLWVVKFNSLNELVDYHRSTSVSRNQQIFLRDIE
# Description: as §1, §2
# TSAd SH2 = molecular target: T4, TSAd SH2 (Homo sapiens, UniProt Q9NP31); assay: SPR equilibrium binding of recombinant TSAd SH2 domain to immobilized phosphopeptides; settings: equilibrium binding of soluble recombinant SH2 domain to immobilized biotinylated peptide, 37°C, 1:1 Langmuir, range, n = 3 (CD28 pYMN: n = 1)
# T4 construct: Recombinant His-tagged SH2 domains of GADS, GRB2, and TSAd in the popinF vector; His tag; made in house; host or cells: Escherichia coli Rosetta(DE3)/pLysS
# T4 sequence (Q9NP31 95-186 limits assumed): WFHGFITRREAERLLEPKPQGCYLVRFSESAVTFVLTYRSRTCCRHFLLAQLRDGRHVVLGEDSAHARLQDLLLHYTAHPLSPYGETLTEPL
# Description: as §1
# Recombinant His-tagged SH2 domains of GADS, GRB2, and TSAd in the popinF vector (provided by Louis Bird, Oxford Protein Production Facility, Harwell, Oxfordshire, UK) and SLP-76 ([1]) were expressed in Escherichia coli Rosetta(DE3)/pLysS competent cells (Novagen) and purified by nickel affinity chromatography and size exclusion chromatography. […] Background signals of proteins over a streptavidin-coated flow cell were subtracted, equilibrium binding data were plotted, and KDs for 1:1 Langmuir binding were determined.
# [1] = equilibrium binding of soluble recombinant SH2 domain to immobilized long CD6 peptides (~50 RU), range, n = 3, read-out: KD (μM) (range) GADS SH2
# [2] = equilibrium binding of soluble recombinant SH2 domain to immobilized biotinylated peptide (~25 RU on streptavidin-coated CM5 chip), 1:1 Langmuir, range, n = 3, read-out: KD (μM) GADS SH2
# [3] = fitted equilibrium curve of the experiment shown, 2-fold serial dilutions of GADS SH2 from 35 μM over immobilized peptide, streptavidin background subtracted, read-out: KD, GADS SH2 (Fig. 1A)
# [4] = equilibrium binding of soluble recombinant SH2 domain to immobilized biotinylated peptide (~25 RU on streptavidin-coated CM5 chip), 1:1 Langmuir, range, n = 3, read-out: KD (μM) GRB2 SH2
Compound,Kd (GADS SH2; [1]) [µM],Kd (SLP-76 SH2) [µM],Kd (GADS SH2; [2]) [µM],Kd (GADS SH2; [3]) [µM],Kd (GRB2 SH2; [4]) [µM],other results
Biotin-STSSGEW[pY]QNFQPPPQPPSEEQFGCPGSPSPQPDSTDNDD[pY]DDISAA [pY629 pY662],0.1 to 2,0.3 to 2,–,–,–,–
Biotin-STSSGEW[pY]QNFQPPPQPPSEEQFGCPGSPSPQPDSTDNDDYDDISAA [pY629],0.2 to 0.6,–,–,–,–,"binding of the SLP-76 SH2 domain (SLP-76 SH2; long CD6 peptides, data not shown): no binding"
"CSCC[C@H](NC(=O)[C@H](Cc1ccc(OP(=O)(O)O)cc1)NC(=O)[C@H](CC(=O)O)NC(=O)[C@H](CO)NC(=O)[C@H](Cc1c[nH]cn1)NC(=O)[C@H](CC(C)C)NC(=O)[C@H](CC(C)C)NC(=O)CCCC[C@@H]1SC[C@@H]2NC(=O)N[C@@H]21)C(=O)N[C@@H](CC(N)=O)C(=O)N[C@@H](CCSC)C(=O)N[C@H](C(=O)N1CCC[C@H]1C(=O)O)[C@@H](C)O [CD28 pYMN, reference compound] (Biotin-LLHSD[pY]MNMTP-OH)",–,–,2 to 3,2,2 to 3,–
NC(=O)CC[C@H](NC(=O)[C@H](Cc1ccc(OP(=O)(O)O)cc1)NC(=O)[C@H](Cc1c[nH]c2ccccc12)NC(=O)[C@H](CCC(=O)O)NC(=O)CNC(=O)[C@H](CO)NC(=O)[C@H](CO)NC(=O)CCCC[C@@H]1SC[C@@H]2NC(=O)N[C@@H]21)C(=O)N[C@@H](CC(N)=O)C(=O)N[C@@H](Cc1ccccc1)C(=O)N[C@@H](CCC(N)=O)C(=O)N1CCC[C@H]1C(=O)O [CD6 pY629] (Biotin-SSGEW[pY]QNFQP-OH),–,–,1 to 3,1,2 to 4,"Kd (TSAd SH2): 26 to 58 µM; Kd (GRB2 SH2; fitted equilibrium curve of the experiment shown, 2-fold serial dilutions of GRB2 SH2 from 106 μM over immobilized peptide, streptavidin background subtracted, read-out: KD, GRB2 SH2 (Fig. 1B)): 2 µM"
Biotin-STSSGEWYQNFQPPPQPPSEEQFGCPGSPSPQPDSTDNDD[pY]DDISAA [pY662],–,0.3 to 2,–,–,–,–
